This passage reports T/C results from PubChem BioAssay AID248 (DTP/NCI, 2004).

SMILES strings stand for the structures. Where “and” joins values, the source holds several entries; their conditions need not be identical. Equal values may be shown once. Toxic doses and inconclusive results are not listed.

This assay relates to L1210 leukemia ip in BDF1 mice, survival T/C. Kind of assay: NCI In Vivo Anticancer Drug Screen. Data for tumor model L1210 Leukemia (intraperitoneal) in B6D2F1 (BDF1) mice. As to conditions: endpoint: mean survival time, higher = longer survival. Put shortly:
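Tumor was transplanted into mice, which were then dosed with test compound or vehicle alone. Survival was recorded for each group, and the treated figure was expressed relative to the control figure.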

Setting [1] is: dose: 100.0 mg/kg/injection, schedule: Q01DX009 (ip), vehicle: Klucel (hydroxypropylcellulose) (HPC).
[2] abbreviates: dose: 100.0 mg/kg/injection, schedule: Q04DX003 (ip), vehicle: Klucel (hydroxypropylcellulose) (HPC).
Setting [3] is: dose: 200.0 mg/kg/injection, schedule: Q04DX003 (ip), vehicle: Klucel (hydroxypropylcellulose) (HPC).
The mark [4] stands for this setting: dose: 400.0 mg/kg/injection, schedule: Q04DX003 (ip), vehicle: Klucel (hydroxypropylcellulose) (HPC).
The mark [5] stands for this setting: dose: 50.0 mg/kg/injection, schedule: Q01DX009 (ip), vehicle: saline with Tween-80.
[6] abbreviates: dose: 100.0 mg/kg/injection, schedule: Q01DX009 (ip), vehicle: saline with Tween-80.
[7] abbreviates: dose: 200.0 mg/kg/injection, schedule: Q01DX009 (ip), vehicle: saline with Tween-80.
[8] abbreviates: dose: 100.0 mg/kg/injection, schedule: Q01DX001 (ip), vehicle: saline.
Where [9] appears, read: dose: 200.0 mg/kg/injection, schedule: Q01DX001 (ip), vehicle: saline.
[10] abbreviates: dose: 400.0 mg/kg/injection, schedule: Q01DX001 (ip), vehicle: saline.
Setting [11] is: dose: 25.0 mg/kg/injection, schedule: Q04DX003 (ip), vehicle: saline.
Where [12] appears, read: dose: 50.0 mg/kg/injection, schedule: Q04DX003 (ip), vehicle: saline.
Where [13] appears, read: dose: 100.0 mg/kg/injection, schedule: Q04DX003 (ip), vehicle: saline.
The mark [14] stands for this setting: dose: 200.0 mg/kg/injection, schedule: Q04DX003 (ip), vehicle: saline.
The mark [15] stands for this setting: dose: 400.0 mg/kg/injection, schedule: Q04DX003 (ip), vehicle: saline.
Setting [16] is: dose: 100.0 mg/kg/injection, schedule: Q04DX003 (ip), vehicle: saline with Tween-80.
Setting [17] is: dose: 200.0 mg/kg/injection, schedule: Q04DX003 (ip), vehicle: saline with Tween-80.
[18] abbreviates: dose: 400.0 mg/kg/injection, schedule: Q01DX009 (ip), vehicle: saline with Tween-80.
The mark [19] stands for this setting: dose: 400.0 mg/kg/injection, schedule: Q04DX003 (ip), vehicle: saline with Tween-80.
The mark [20] stands for this setting: dose: 100.0 mg/kg/injection, schedule: Q01DX001 (ip), vehicle: other.
Setting [21] is: dose: 200.0 mg/kg/injection, schedule: Q01DX001 (ip), vehicle: other.
The mark [22] stands for this setting: dose: 400.0 mg/kg/injection, schedule: Q01DX001 (ip), vehicle: other.

On to `CC[n+]1ccc(/C=C\c2cccc([N+](=O)[O-])c2)cc1`, for which the T/C is 91 % of control (dose: 25.0 mg/kg/injection, schedule: Q01DX009 (ip), vehicle: Klucel (hydroxypropylcellulose) (HPC)); 91 % of control (dose: 50.0 mg/kg/injection, schedule: Q01DX009 (ip), vehicle: Klucel (hydroxypropylcellulose) (HPC)); 98 % of control under setting [1]; 93 % of control under setting [2].
As to `OC(Br)C1C(c2ccccc2)N1C1CCCCC1` (stereo not drawn), the T/C reads like this: under setting [2], 98 % of control; under setting [3], 91 % of control; under setting [4], 93 % of control.
For the compound `CCCCNC(=O)OCC`, the T/C (dose: 50.0 mg/kg/injection, schedule: Q01DX001 (ip), vehicle: carboxymethylcellulose (CMC)) was 102 % of control; the T/C under setting [5] was 90 % of control; the T/C (dose: 88.0 mg/kg/injection, schedule: Q01DX001 (ip), vehicle: carboxymethylcellulose (CMC)) was 104 % of control and 92 % of control; the T/C (dose: 100.0 mg/kg/injection, schedule: Q01DX001 (ip), vehicle: carboxymethylcellulose (CMC)) was 98 % of control; the T/C under setting [6] was 95 % of control; the T/C (dose: 133.0 mg/kg/injection, schedule: Q01DX001 (ip), vehicle: carboxymethylcellulose (CMC)) is 93 % of control and 92 % of control. The T/C is 93 % of control and 92 % of control (dose: 200.0 mg/kg/injection, schedule: Q01DX001 (ip), vehicle: carboxymethylcellulose (CMC)); 93 % of control under setting [7]; 96 % of control and 106 % of control (dose: 300.0 mg/kg/injection, schedule: Q01DX001 (ip), vehicle: carboxymethylcellulose (CMC)); 102 % of control (dose: 400.0 mg/kg/injection, schedule: Q01DX001 (ip), vehicle: carboxymethylcellulose (CMC)).
Take `CCOC(=O)CCN(C(=S)Nc1ccccc1)C1CCCCC1`: the T/C is, setting by setting: (dose: 100.0 mg/kg/injection, schedule: Q01DX Z (ip), vehicle: methylcellulose (MC)) 94 % of control; (dose: 200.0 mg/kg/injection, schedule: Q01DX Z (ip), vehicle: methylcellulose (MC)) 92 % of control.
With `CCC(CC=C(C)C)(CC=C(C)C)c1ccncc1` (tested in a mixture with another compound), the T/C is, setting by setting: under setting [8], 97 % of control; under setting [9], 102 % of control; under setting [10], 97 % of control.
With `CC(C)NC(=O)c1ccc(CNN(C)C)cc1`, the T/C is, setting by setting: under setting [11], 114 % of control; under setting [12], 104 % of control; under setting [13], 112 % of control; under setting [14], 104 % of control; under setting [15], 111 % of control.
In the case of `Nc1ncnc2c1ncn2C1OCC(OCc2ccccc2)C(OCc2ccccc2)C1OCc1ccccc1` (stereo not drawn), the T/C was 98 % of control under setting [8]; 97 % of control and 104 % of control (dose: 178.0 mg/kg/injection, schedule: Q01DX001 (ip), vehicle: saline); 98 % of control and 96 % of control under setting [9]; 97 % of control and 103 % of control (dose: 267.0 mg/kg/injection, schedule: Q01DX001 (ip), vehicle: saline); 101 % of control and 220 % of control and 93 % of control under setting [10]; 97 % of control and 101 % of control (dose: 600.0 mg/kg/injection, schedule: Q01DX001 (ip), vehicle: saline).
As to `O=c1c2ccccc2[nH]c2ccc(Cl)cc12`, the T/C reads like this: under setting [1], 92 % of control; under setting [2], 96 % of control; (dose: 200.0 mg/kg/injection, schedule: Q01DX009 (ip), vehicle: Klucel (hydroxypropylcellulose) (HPC)) 96 % of control; under setting [3], 91 % of control; (dose: 400.0 mg/kg/injection, schedule: Q01DX009 (ip), vehicle: Klucel (hydroxypropylcellulose) (HPC)) 86 % of control; under setting [4], 100 % of control.
As for `COc1ccc(/C=C/C(=O)c2ccccc2)cc1`, the T/C under setting [6] was 93 % of control and 101 % of control; the T/C under setting [16] is 93 % of control; the T/C under setting [7] was 95 % of control and 96 % of control; the T/C under setting [17] was 96 % of control; the T/C under setting [18] was 111 % of control and 91 % of control; the T/C under setting [19] is 104 % of control.
For the compound `CNc1ccc(C(=O)O)cc1OC`, the T/C runs as follows: under setting [6], 95 % of control; under setting [7], 91 % of control; under setting [18], 88 % of control.
With `NC(=O)/C=C/c1cccnc1`, the T/C was 91 % of control under setting [13], 98 % of control under setting [14] and 96 % of control under setting [15].
On to `CCOC(=O)COCC(C)=O`, for which the T/C reads like this: under setting [5], 92 % of control; under setting [6], 96 % of control; under setting [7], 96 % of control.
`CCCCCCCOC(C[N+](=O)[O-])C(Cl)(Cl)Cl` (stereo not drawn): the T/C was 95 % of control (dose: 25.0 mg/kg/injection, schedule: Q01DX009 (ip), vehicle: acetone); 93 % of control (dose: 50.0 mg/kg/injection, schedule: Q01DX009 (ip), vehicle: acetone); 99 % of control (dose: 100.0 mg/kg/injection, schedule: Q04DX003 (ip), vehicle: acetone).
For the compound `c1cc(CCc2ccncc2)ccn1`, the T/C is 99 % of control under setting [11]; 99 % of control under setting [12]; 109 % of control and 89 % of control under setting [13].
On to `O=C(c1ccccc1)C(Br)C(C(=O)c1ccccc1)c1ccccc1` (stereo not drawn), for which the T/C is 94 % of control under setting [5], 90 % of control under setting [6] and 86 % of control under setting [7].
`Nc1nc(N)c2[nH]c(CCNc3ccc(C(=O)O)cc3)nc2n1`: the T/C (dose: 6.25 mg/kg/injection, schedule: Q01DX001 (ip), vehicle: saline with Tween-80) is 96 % of control; the T/C (dose: 12.5 mg/kg/injection, schedule: Q01DX001 (ip), vehicle: saline with Tween-80) was 92 % of control; the T/C (dose: 25.0 mg/kg/injection, schedule: Q01DX001 (ip), vehicle: saline with Tween-80) is 94 % of control and 101 % of control; the T/C (dose: 50.0 mg/kg/injection, schedule: Q01DX001 (ip), vehicle: saline with Tween-80) is 98 % of control; the T/C (dose: 100.0 mg/kg/injection, schedule: Q01DX001 (ip), vehicle: saline with Tween-80) is 102 % of control.
Consider `O=C(Cc1ccccc1)NC1=C(Cl)C(=O)c2ccccc2C1=O`, for which the T/C under setting [16] was 89 % of control, the T/C under setting [17] is 101 % of control and the T/C under setting [19] is 88 % of control.
For the compound `CCCCCCCCN(CCCCCCCC)NC(C)=O`, the T/C by setting is: (dose: 50.0 mg/kg/injection, schedule: Q01DX001 (ip), vehicle: other) 96 % of control; under setting [20], 104 % of control; under setting [21], 96 % of control; under setting [22], 93 % of control.
Take `Brc1cccc([Si](c2ccccc2)(c2ccccc2)c2cccc(Br)c2)c1`: the T/C was 98 % of control under setting [16], 98 % of control under setting [17] and 95 % of control under setting [19].
Turning to `CCC1CN2CCc3cc(OC)c(OC)cc3C2CC1CC1c2cc(OC)c(OC)cc2CCN1C(=O)C1CCCN1` (stereo not drawn), the T/C by setting is: (dose: 50.0 mg/kg/injection, schedule: Q01DX001 (ip), vehicle: saline) 95 % of control; under setting [8], 111 % of control; under setting [9], 95 % of control.
As for `Oc1ccc(/C=N/NC(=S)NN2CCOCC2)nc1`, the T/C runs as follows: (dose: 6.25 mg/kg/injection, schedule: Q01DX009 (ip), vehicle: saline with Tween-80) 108 % of control; (dose: 12.5 mg/kg/injection, schedule: Q01DX009 (ip), vehicle: saline with Tween-80) 116 % of control; (dose: 22.0 mg/kg/injection, schedule: Q04DX002 (ip), vehicle: saline with Tween-80) 108 % of control; (dose: 25.0 mg/kg/injection, schedule: Q01DX009 (ip), vehicle: saline with Tween-80) 108 % of control and 119 % of control; (dose: 33.0 mg/kg/injection, schedule: Q04DX002 (ip), vehicle: saline with Tween-80) 101 % of control; (dose: 50.0 mg/kg/injection, schedule: Q04DX002 (ip), vehicle: saline with Tween-80) 111 % of control.
For the compound `COc1cc(N)c(OC)nn1`, the T/C was 105 % of control under setting [20], 96 % of control under setting [21] and 93 % of control under setting [22].
For the compound `COC1OC2COc3ccccc3OC2C(NC(N)=O)C1O` (stereo not drawn), the T/C is, setting by setting: under setting [6], 97 % of control; under setting [7], 100 % of control; under setting [18], 91 % of control.
